These are literature values, as cited in patent US8093271B2, “Anti-acid pharmaceutical composition in powder form and process for making it” (Laboratorios Bago S.A., priority 2006, dated 2012).

Where two headings read alike, the source gives them in different places.

The conditions of data set [1]: in water.

Regarding `COc1ccc2[nH]c([S+]([O-])Cc3ncc(C)c(OC)c3C)nc2c1` (stereo not shown) [omeprazole], where the note is “absorption in the small intestine”, the “time by which absorption is completed” value was 3 to 6 h. Also, under “fasting state”, the “time required to reach the intestine” value was 20 to 30 min. The half life entry in data set [1] (pH near 7) is “about 14 hours”; in data set [1] (pH of 4), “lower than 10 minutes”.
